Earlier results, collected in patent US5574070A, “Substituted guanidines having high binding to the sigma receptor and the use thereof” (priority 1993, dated 1996).

Key:
[1] = system: apomorphine-induced mesolimbic behaviors; conditions: without altering the intensity of stereotypic behaviors; cited from earlier work
[2] = system: dopamine-stimulated production of cAMP; conditions: homogenates of rat striatum and olfactory tubercle; cited from earlier work
dopamine synthesis = conditions: cited from earlier work
anxiety = conditions: in vivo; cited from earlier work

C[C@@H]1CN(CCCn2c3ccccc3c3ccccc32)C[C@H](C)N1.Cl.Cl [rimcazole, cis-9-[3-(3,5-dimethyl-1-piperazinyl)propyl]carbazole dihydrochloride]
antagonism of apomorphine-induced mesolimbic behaviors [1]: ability to antagonize apomorphine-induced mesolimbic behaviors selectively | effect on dopamine-stimulated cAMP [2]: does not affect dopamine-stimulated production of cAMP | effect on rate of dopamine synthesis (dopamine synthesis): does not accelerate the rate of dopamine synthesis | anxiolytic activity (anxiety): determined to have anxiolytic activity
